Measured values as given in patent US11000033B2, “Ketone or oxime compound, and herbicide” (NISSAN CHEMICAL CORPORATION, priority 2014, dated 2021).

Tests used:
Assay type in all cases: in vivo
[1] = test system: directly sowed rice plant; assay: Test Example 3: effect on crop by foliage application, Wagner pot (symbol b); details: application herbicide amount 320 g/ha
Summary of the method: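 Greenhouse culture at 25–30 °C of seeded rice, Cyperus difformis, Leptochloa chinensis and Echinochloa crus-galli var. crus-galli, in alluvial soil held under 0.1–0.5 cm of water in a Wagner pot.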

Digitaria ciliaris = assay: Test Example 4: herbicidal effect by soil treatment (symbol F); details: application herbicide amount 320 g/ha
Summary of the method: (§1)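 Seeds were sown in sterilized diluvial soil, covered with about 1.5 cm of soil, and the soil surface was sprayed with a water-diluted emulsion of the compound at a predetermined rate. Plants grew in a greenhouse at 25° C. to 30° C.; effects were scored visually 3 weeks after application.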

beet = assay: Test Example 4: effect on crop by soil treatment (symbol f); details: application herbicide amount 320 g/ha
Summary of the method: (§2)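 Soil-treatment setup: crop and weed seeds were spot-sown into sterilized diluvial soil, then buried beneath approximately 1.5 cm of it, and the boxes were housed in a 25–30° C. greenhouse.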

[2] = test system: Echinochloa oryzacola Vasing.; assay: Test Example 2: herbicidal activity, application during weed generation in submerged conditions (symbol A); details: Table 23; application herbicide amount 320 g/ha; grade 0-5 by criteria of Test Example 1
Summary of the method: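 Visual herbicidal ratings, taken three weeks after dosing, reflect post-emergence water-surface application to seedlings at one to two leaves. Conditions: co-sown weeds in alluvial soil flooded to 4 cm, greenhouse held at 25° C. to 30° C.; compound given as water-diluted emulsion at a fixed herbicide amount.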

Alopecurus myosuroides [3] = assay: Test Example 5: herbicidal effect by foliage application, plastic box (symbol J); details: 320 g/ha, 3 weeks after application
Summary of the method: (§3)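 Herbicide, formulated as an emulsion and diluted in water, is sprayed onto the aerial parts of 14-day seedlings. These were grown at 25° C. to 30° C. in sterilized diluvial soil; effects are graded after 3 weeks.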

rapeseed = assay: Test Example 4: effect on crop by soil treatment (symbol g); details: application herbicide amount 320 g/ha
Summary of the method: as §2

wheat [4] = assay: Test Example 5: effect on crop by foliage application, plastic box (symbol e); details: 320 g/ha, 3 weeks after application
Summary of the method: (§4)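 Soil: sterilized diluvial. Container: plastic box, 21 × 13 cm, 7 cm deep. Sowing: spot-like, ~1.5 cm cover. Growth: greenhouse, 25° C. to 30° C.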

Alopecurus myosuroides [5] = assay: Test Example 4: herbicidal effect by soil treatment (symbol J); details: application herbicide amount 320 g/ha
Summary of the method: as §1

rice plant = assay: Test Example 5: effect on crop by foliage application, plastic box (symbol b); details: 320 g/ha, 3 weeks after application
Summary of the method: as §4

Lolium multiflorum Lam. [6] = assay: Test Example 5: herbicidal effect by foliage application, plastic box (symbol K); details: 320 g/ha, 3 weeks after application
Summary of the method: as §3

wheat [7] = assay: Test Example 4: effect on crop by soil treatment (symbol e); details: application herbicide amount 320 g/ha
Summary of the method: as §2

rice = assay: Test Example 4: effect on crop by soil treatment (symbol b); details: application herbicide amount 320 g/ha
Summary of the method: as §2

corn = assay: Test Example 4: effect on crop by soil treatment (symbol c); details: application herbicide amount 320 g/ha
Summary of the method: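 Plants are raised in a greenhouse (25° C. to 30° C.) from spot-sown seed, which sits under about 1.5 cm of sterilized diluvial soil in a box shared with weed species.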

Lolium multiflorum Lam. [8] = assay: Test Example 4: herbicidal effect by soil treatment (symbol K); details: application herbicide amount 320 g/ha
Summary of the method: as §1

SMILES	effect on crop b (directly sowed rice plant), grade 0-5 [1]	F (Digitaria ciliaris) herbicidal effect grade (Digitaria ciliaris)	f (beet) effect on crop grade (beet)	Herbicidal effect grade, A: Echinochloa oryzacola Vasing. [2]	J: Alopecurus myosuroides, herbicidal effect grade (Alopecurus myosuroides [3])	g (rapeseed) effect on crop grade (rapeseed)	e: wheat, effect on crop grade (wheat [4])	J (Alopecurus myosuroides) herbicidal effect grade (Alopecurus myosuroides [5])	b: directly sowed rice plant, effect on crop grade (rice plant)	K: Lolium multiflorum Lam., herbicidal effect grade (Lolium multiflorum Lam. [6])	e (wheat) effect on crop grade (wheat [7])	b (directly sowed rice plant) effect on crop grade (rice)	c (corn) effect on crop grade (corn)	K (Lolium multiflorum Lam.) herbicidal effect grade (Lolium multiflorum Lam. [8])	other results
C=CCON=C(C)CC1CC(O)=C(c2c(C)cc(C)cc2C)C1=O (stereo not shown) [1-018]	5 (Herbicidal ratio of 90% or more (almost completely withered))	5 (Herbicidal ratio of 90% or more (almost completely withered))	0 (Herbicidal ratio of 5% or lower (almost no effect))	5 (Herbicidal ratio of 90% or more (almost completely withered))	5 (Herbicidal ratio of 90% or more (almost completely withered))	4 (Herbicidal ratio of 70% or higher and lower than 90%)	5 (Herbicidal ratio of 90% or more (almost completely withered))	5 (Herbicidal ratio of 90% or more (almost completely withered))	5 (Herbicidal ratio of 90% or more (almost completely withered))	5 (Herbicidal ratio of 90% or more (almost completely withered))	4 (Herbicidal ratio of 70% or higher and lower than 90%)	5 (Herbicidal ratio of 90% or more (almost completely withered))	4 (Herbicidal ratio of 70% or higher and lower than 90%)	5 (Herbicidal ratio of 90% or more (almost completely withered))	–
CON=C(C)CC1CC(OC(=O)C(C)(C)CCl)=C(c2c(C)cc(C)cc2C)C1=O (stereo not shown) [1-016]	5 (Herbicidal ratio of 90% or more (almost completely withered))	5 (Herbicidal ratio of 90% or more (almost completely withered))	0 (Herbicidal ratio of 5% or lower (almost no effect))	5 (Herbicidal ratio of 90% or more (almost completely withered))	5 (Herbicidal ratio of 90% or more (almost completely withered))	4 (Herbicidal ratio of 70% or higher and lower than 90%)	5 (Herbicidal ratio of 90% or more (almost completely withered))	5 (Herbicidal ratio of 90% or more (almost completely withered))	5 (Herbicidal ratio of 90% or more (almost completely withered))	5 (Herbicidal ratio of 90% or more (almost completely withered))	2 (Herbicidal ratio of 20% or higher and lower than 40%)	5 (Herbicidal ratio of 90% or more (almost completely withered))	4 (Herbicidal ratio of 70% or higher and lower than 90%)	5 (Herbicidal ratio of 90% or more (almost completely withered))	–
CON=C(C)CC1CC(OC(=O)C(C)(C)Oc2ccccc2)=C(c2c(C)cc(C)cc2C)C1=O (stereo not shown) [1-017]	5 (Herbicidal ratio of 90% or more (almost completely withered))	5 (Herbicidal ratio of 90% or more (almost completely withered))	0 (Herbicidal ratio of 5% or lower (almost no effect))	5 (Herbicidal ratio of 90% or more (almost completely withered))	5 (Herbicidal ratio of 90% or more (almost completely withered))	4 (Herbicidal ratio of 70% or higher and lower than 90%)	5 (Herbicidal ratio of 90% or more (almost completely withered))	5 (Herbicidal ratio of 90% or more (almost completely withered))	5 (Herbicidal ratio of 90% or more (almost completely withered))	5 (Herbicidal ratio of 90% or more (almost completely withered))	2 (Herbicidal ratio of 20% or higher and lower than 40%)	5 (Herbicidal ratio of 90% or more (almost completely withered))	4 (Herbicidal ratio of 70% or higher and lower than 90%)	5 (Herbicidal ratio of 90% or more (almost completely withered))	–
CC(CC1CC(O)=C(c2c(C)cc(C)cc2C)C1=O)=NOCc1ccccn1 (stereo not shown) [1-022]	5 (Herbicidal ratio of 90% or more (almost completely withered))	5 (Herbicidal ratio of 90% or more (almost completely withered))	3 (Herbicidal ratio of 40% or higher and lower than 70%)	4 (Herbicidal ratio of 70% or higher and lower than 90%)	5 (Herbicidal ratio of 90% or more (almost completely withered))	–	5 (Herbicidal ratio of 90% or more (almost completely withered))	5 (Herbicidal ratio of 90% or more (almost completely withered))	5 (Herbicidal ratio of 90% or more (almost completely withered))	5 (Herbicidal ratio of 90% or more (almost completely withered))	4 (Herbicidal ratio of 70% or higher and lower than 90%)	5 (Herbicidal ratio of 90% or more (almost completely withered))	0 (Herbicidal ratio of 5% or lower (almost no effect))	5 (Herbicidal ratio of 90% or more (almost completely withered))	–
CCc1cc(Br)cc(C)c1C1=C(O)CC(C(C(C)=O)C(=O)OC)C1=O (stereo not shown) [7-001]	2 (Herbicidal ratio of 20% or higher and lower than 40%)	–	–	0 (Herbicidal ratio of 5% or lower (almost no effect))	–	–	–	–	–	–	–	–	–	–	Herbicidal effect grade, F: Digitaria ciliaris (Digitaria ciliaris): 5 (Herbicidal ratio of 90% or more (almost completely withered)); Effect on crop grade, f: beet (beet): 0 (Herbicidal ratio of 5% or lower (almost no effect)); J: Alopecurus myosuroides, herbicidal effect (criteria of Test Example 1) (Alopecurus myosuroides [3]): 3 (Herbicidal ratio of 40% or higher and lower than 70%); Effect on crop grade, g: rapeseed (rapeseed): 0 (Herbicidal ratio of 5% or lower (almost no effect)); e: wheat, effect on crop (criteria of Test Example 1) (wheat [4]): 0 (Herbicidal ratio of 5% or lower (almost no effect)); Herbicidal effect grade, J: Alopecurus myosuroides (Alopecurus myosuroides [5]): 0 (Herbicidal ratio of 5% or lower (almost no effect)); b: directly sowed rice plant, effect on crop (criteria of Test Example 1) (rice plant): 1 (Herbicidal ratio of 5% or higher and lower than 20%); K: Lolium multiflorum Lam., herbicidal effect (criteria of Test Example 1) (Lolium multiflorum Lam. [6]): 5 (Herbicidal ratio of 90% or more (almost completely withered)); Effect on crop grade, e: wheat (wheat [7]): 0 (Herbicidal ratio of 5% or lower (almost no effect)); Effect on crop grade, b: directly sowed rice plant (rice): 4 (Herbicidal ratio of 70% or higher and lower than 90%); Effect on crop grade, c: corn (corn): 0 (Herbicidal ratio of 5% or lower (almost no effect)); Herbicidal effect grade, K: Lolium multiflorum Lam. (Lolium multiflorum Lam. [8]): 5 (Herbicidal ratio of 90% or more (almost completely withered))
CON=C(C)CC1CC(OC(=O)C2CC2)=C(c2c(C)cc(C)cc2C)C1=O (stereo not shown) [1-015]	5 (Herbicidal ratio of 90% or more (almost completely withered))	5 (Herbicidal ratio of 90% or more (almost completely withered))	–	5 (Herbicidal ratio of 90% or more (almost completely withered))	5 (Herbicidal ratio of 90% or more (almost completely withered))	4 (Herbicidal ratio of 70% or higher and lower than 90%)	5 (Herbicidal ratio of 90% or more (almost completely withered))	5 (Herbicidal ratio of 90% or more (almost completely withered))	5 (Herbicidal ratio of 90% or more (almost completely withered))	5 (Herbicidal ratio of 90% or more (almost completely withered))	3 (Herbicidal ratio of 40% or higher and lower than 70%)	5 (Herbicidal ratio of 90% or more (almost completely withered))	4 (Herbicidal ratio of 70% or higher and lower than 90%)	5 (Herbicidal ratio of 90% or more (almost completely withered))	–
